Reference: patent publication US4200748A, “Pyrido[1',2':4,5][1,4]oxazino[2,3-b]quinoxalines and pyrrolo[1',2':4,5][1,4]oxazino[2,3-b]quinoxalines” (American Cyanamid Company, priority 1979, dated 1980)

Test system: brain receptors (3H-diazepam binding)
Assay: Inhibition of the binding of 3H-diazepam to the brain receptors (rat frontal cortex P2-synaptosomal fraction)
Design: species or system male albino rats of the Wistar strain
Details: 3H-diazepam 1.5 nM, pH 7.4, 20 minutes in ice; for % Inhibition of Diazepam Binding: test concentration not given; for IC50: inhibition of 3H-diazepam binding
Source text: A test used to measure anxiolytic activity comprises measurement of the ability of test compounds to inhibit the binding of ^3 H-diazepam to the brain receptors of warm-blooded animals. The test is described by R. F. Squires in Nature, 266, No. 21, page 732 (April 1977). The animals used were male albino rats of the Wistar strain, weighing 150-200 g. each from Royalhart Farms. Diazepam (methyl-^3 H) was obtained from New England Nuclear. The test compounds were solubilized in either dimethylformamide, acetic acid, ethanol or hydrochloric acid. The frontal cortex of rats was homogenized gently in 20 volumes of ice-cold 0.32 M. sucrose, centrifuged twice at 1000 g. for 10 minutes and then recentrifuged at 30,000 g. for 20 minutes to produce a crude P2 -synaptosomal fraction. The P2 -fraction was rehomogenised, twice the original volume, in hypotonic 50 mM. Tris.HCl (pH 7.4). The binding assay consisted of 300 .parallel.l. of the P2 -fraction suspension (0.350 mg.), 100 .parallel.l. of test drug and 100 μl. of ^3 H-diazepam (1.5 nM.), which was added to 1.5 ml. of 50 mM. Tris.HCl (pH 7.4). Non-specific binding controls and total binding controls received 100 μl. of diazepam (3 μm.) and 100 μl. of deionized water, respectively, in place of the test compound. Incubation for 20 minutes proceeded in ice and was terminated by filtration, under vacuum, through Whatman GF/C glass fiber filters. The filters were washed twice with 5 ml. of ice-cold 50 mM. Tris.HCl (pH 7.4) and placed in scintillation vials. After drying at 50°-60° C. for 30 minutes, 10 ml. of Beckman Ready-Solve HP was added and the radioactivity determined in a Beckman Scintillation Counter.

Row | SMILES | % Inhibition of Diazepam Binding [%] | IC50 [nM]
1 | c1ccc2nc3c(nc2c1)OCC1CCCN31 (single isomer, unassigned) [2,3,3a,4-Tetrahydro-1H-pyrrolo[1',2':4,5][1,4]oxazino[2,3-b]quinoxaline] | 87 | 87
2 | FC(F)(F)c1ccc2nc3c(nc2c1)OCC1CCCCN31 (stereo not shown) [1,2,3,4,4a,5-Hexahydro-9-trifluoromethylpyrido[1',2':4,5][1,4]oxazino[2,3-b]quinoxaline] | 90 | 352
3 | O=[N+]([O-])c1cccc2nc3c(nc12)N1CCCCC1CO3 (stereo not shown) [1,2,3,4,4a,5-hexahydro-11-nitropyrido[1',2':4,5][1,4]oxazino[2,3-b]quinoxaline] | 72 | 210
4 | Nc1ccc2nc3c(nc2c1)OCC1CCCCN31 (stereo not shown) [9-Amino-1,2,3,4,4a,5-hexahydropyrido[1',2':4,5][1,4]oxazino[2,3-b]quinoxaline] | 93 | 39
5 | Clc1ccc2nc3c(nc2c1)OCC1CCCCN31 (stereo not shown) [9-Chloro-1,2,3,4,4a,5-hexahydropyrido[1',2':4,5][1,4]oxazino[2,3-b]quinoxaline] | 97 | 14
6 | Clc1ccc2nc3c(nc2c1)N1CCCCC1CO3 (stereo not shown) [10-chloro-1,2,3,4,4a,5-hexahydropyrido[1',2':4,5][1,4]oxazino[2,3-b]quinoxaline] | 95 | 22
7 | Nc1cccc2nc3c(nc12)N1CCCCC1CO3 (stereo not shown) [11-Amino-1,2,3,4,4a,5-hexahydropyrido[1',2':4,5][1,4]oxazino[2,3-b]quinoxaline] | 98 | 20
8 | CN(C)C=Nc1cccc2nc3c(nc12)N1CCCCC1CO3 (stereo not shown) [N'-(1,2,3,4,4a,5-hexahydropyrido[1',2':4,5][1,4]oxazino[2,3-b]quinoxalin-11-yl)-N,N-dimethylformamidine] | 96 | 55
